Results as given in the Kinase Knowledgebase extract (Sharma et al. 2016).

Tests used:
EGFR (murine) [1] = target: EGFR (murine) (UniProt P00533); conditions: nih3t3/c7
EGFR = EGFR (UniProt P00533)
EGFR (murine) [2] = target: EGFR (murine) (UniProt P00533); conditions: 3t3

Sequence of EGFR (murine) (P00533 whole entry, looked up): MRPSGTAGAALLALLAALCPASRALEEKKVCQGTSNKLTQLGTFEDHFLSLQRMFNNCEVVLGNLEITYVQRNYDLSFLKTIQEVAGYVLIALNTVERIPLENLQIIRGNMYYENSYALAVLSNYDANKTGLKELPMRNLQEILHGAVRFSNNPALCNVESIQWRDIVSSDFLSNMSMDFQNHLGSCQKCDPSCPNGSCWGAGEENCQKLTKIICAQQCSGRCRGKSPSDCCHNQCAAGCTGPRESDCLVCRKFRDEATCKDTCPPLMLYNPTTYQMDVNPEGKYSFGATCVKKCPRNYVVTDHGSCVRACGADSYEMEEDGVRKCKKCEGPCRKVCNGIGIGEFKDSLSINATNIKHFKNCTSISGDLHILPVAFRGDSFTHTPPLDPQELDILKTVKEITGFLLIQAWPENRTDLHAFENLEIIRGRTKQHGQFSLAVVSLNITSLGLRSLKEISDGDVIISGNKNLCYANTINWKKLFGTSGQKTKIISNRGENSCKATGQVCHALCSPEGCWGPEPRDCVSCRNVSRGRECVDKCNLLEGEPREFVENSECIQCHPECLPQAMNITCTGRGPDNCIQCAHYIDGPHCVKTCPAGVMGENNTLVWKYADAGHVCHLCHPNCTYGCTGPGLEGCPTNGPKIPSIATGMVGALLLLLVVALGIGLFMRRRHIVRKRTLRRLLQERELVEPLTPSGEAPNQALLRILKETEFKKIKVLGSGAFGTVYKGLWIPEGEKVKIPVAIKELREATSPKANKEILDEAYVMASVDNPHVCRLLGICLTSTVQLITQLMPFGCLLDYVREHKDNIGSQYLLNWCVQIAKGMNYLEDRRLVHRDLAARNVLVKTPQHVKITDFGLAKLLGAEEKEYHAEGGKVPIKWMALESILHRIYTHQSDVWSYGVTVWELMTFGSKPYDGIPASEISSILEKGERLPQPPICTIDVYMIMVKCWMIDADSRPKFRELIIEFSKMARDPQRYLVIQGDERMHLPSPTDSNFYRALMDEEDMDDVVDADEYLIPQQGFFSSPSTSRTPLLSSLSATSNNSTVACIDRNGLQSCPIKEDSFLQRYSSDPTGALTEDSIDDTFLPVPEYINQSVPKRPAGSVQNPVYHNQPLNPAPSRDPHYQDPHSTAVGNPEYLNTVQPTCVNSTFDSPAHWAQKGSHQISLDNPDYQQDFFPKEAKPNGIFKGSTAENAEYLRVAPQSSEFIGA
Sequence of EGFR (P00533 whole entry, looked up): as above

SMILES | IC50 (EGFR (murine) [1]) | IC50 (EGFR) | IC50 (EGFR (murine) [2])
CN(C)S(=O)(=O)c1ccc2c(c1)/C(=C/c1ccc3[nH]ccc3c1)C(=O)N2 | > 100 µM | > 100 µM | –
CN(C)S(=O)(=O)c1ccc2c(c1)/C(=C/c1c[nH]c3ccccc13)C(=O)N2 | > 100 µM | > 100 µM | –
CCOc1cccc(-c2ccc3c(c2)NC(=O)/C3=C\c2[nH]cc(C)c2CCC(=O)O)c1 | – | > 100 µM | –
CCOC(=O)c1[nH]c(/C=C2\C(=O)Nc3ccccc32)c(CCC(=O)O)c1C | – | > 100 µM | –
COc1ccc(-c2ccc3c(c2)NC(=O)/C3=C\c2[nH]c3c(c2CCC(=O)O)CCCC3)cc1 | > 100 µM | – | –
O=C(O)CCc1c(/C=C2\C(=O)Nc3cc(-c4ccccc4)ccc32)[nH]c2c1CCCC2 | > 100 µM | > 100 µM | –
CNS(=O)(=O)c1ccc2c(c1)/C(=C/c1ccc3[nH]ccc3c1)C(=O)N2 | > 100 µM | > 100 µM | –
COc1ccc2c(c1)NC(=O)/C2=C\c1[nH]c2c(c1CCC(=O)O)CCCC2 | – | > 100 µM | –
Cc1[nH]c2ccccc2c1/C=C1\C(=O)Nc2ccc(S(=O)(=O)N(C)C)cc21 | > 100 µM | > 100 µM | –
O=C(O)CCc1c(/C=C2\C(=O)Nc3ccc(Br)cc32)[nH]c2c1CCCC2 | > 100 µM | > 100 µM | –
CNS(=O)(=O)c1ccc2c(c1)/C(=C/c1c(C)[nH]c3ccccc13)C(=O)N2 | > 100 µM | > 100 µM | –
NS(=O)(=O)c1ccc2c(c1)/C(=C/c1ccc3[nH]ccc3c1)C(=O)N2 | > 100 µM | > 100 µM | –
Cc1c[nH]c(/C=C2\C(=O)Nc3cccc(C)c32)c1CCC(=O)O | – | > 100 µM | –
CN(C)S(=O)(=O)c1ccc2c(c1)/C(=C/c1cc3ccccc3[nH]1)C(=O)N2 | > 100 µM | > 100 µM | –
COc1ccccc1-c1ccc2c(c1)NC(=O)/C2=C\c1[nH]c2c(c1CCC(=O)O)CCCC2 | > 100 µM | > 100 µM | –
CC(=O)Nc1ccc2c(c1)NC(=O)/C2=C/c1ccc(OCCN2CCOCC2)cc1-c1cccs1 | 79 µM | > 100 µM | 28.6 µM
CNS(=O)(=O)c1ccc2c(c1)/C(=C/c1c[nH]c3ccccc13)C(=O)N2 | > 100 µM | > 100 µM | –
Cc1[nH]c2ccccc2c1/C=C1\C(=O)Nc2ccc(S(N)(=O)=O)cc21 | > 100 µM | > 100 µM | –
O=C(O)CCc1c(/C=C2\C(=O)Nc3ccccc32)[nH]c2c1CCCC2 | – | > 100 µM | –
